Legend:
human R1 = target: T1, human R1 (Homo sapiens, UniProt P23921); experiment: Surface plasmon resonance binding analysis; settings: SPR, steady-state affinity, three independent experiments
T1 construct: made in house; host or cells: Escherichia coli
T1 sequence (P23921 1-792): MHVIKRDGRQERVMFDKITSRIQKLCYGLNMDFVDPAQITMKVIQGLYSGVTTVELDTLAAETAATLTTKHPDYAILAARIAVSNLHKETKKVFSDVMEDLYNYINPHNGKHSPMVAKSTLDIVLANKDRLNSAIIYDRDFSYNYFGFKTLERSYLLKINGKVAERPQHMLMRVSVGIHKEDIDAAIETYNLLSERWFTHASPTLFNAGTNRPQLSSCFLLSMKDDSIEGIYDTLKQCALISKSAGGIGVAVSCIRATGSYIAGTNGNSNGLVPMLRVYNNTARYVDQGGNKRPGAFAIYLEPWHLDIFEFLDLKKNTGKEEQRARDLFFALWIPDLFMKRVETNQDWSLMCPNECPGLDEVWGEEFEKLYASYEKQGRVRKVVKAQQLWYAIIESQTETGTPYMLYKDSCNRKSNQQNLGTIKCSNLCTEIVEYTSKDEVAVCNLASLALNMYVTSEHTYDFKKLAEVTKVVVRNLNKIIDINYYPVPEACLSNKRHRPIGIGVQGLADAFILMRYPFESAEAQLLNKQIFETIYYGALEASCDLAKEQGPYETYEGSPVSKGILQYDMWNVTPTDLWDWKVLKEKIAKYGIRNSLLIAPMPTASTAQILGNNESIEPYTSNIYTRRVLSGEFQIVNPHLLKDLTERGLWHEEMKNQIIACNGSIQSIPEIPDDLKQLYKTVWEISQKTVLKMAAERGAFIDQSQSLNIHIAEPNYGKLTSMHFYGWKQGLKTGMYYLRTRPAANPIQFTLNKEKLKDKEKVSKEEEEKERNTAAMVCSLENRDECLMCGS
Experimental: The binding affinity of TAS1553 to the R1 subunit was investigated using surface plasmon resonance (SPR) binding analysis. […] Next, we evaluated the inhibitory effect of TAS1553 against the enzymatic activity of RNR, consisting of R1 and R2 recombinant proteins. RNR activity was determined by its ability to reduce cytidine diphosphate (CDP) to deoxycytidine diphosphate (dCDP), based on a previous report. […] In addition to the inhibitory effect on RNR, TAS1553 was evaluated in a Eurofins LeadProfilingScreen panel assay including 68 proteins, such as ion channels, transporters, nuclear receptors, and G protein-coupled receptors, to examine its potential adverse activity.

[1] = tested on: intracellular dNTP pools in HCC38 and MV-4-11 cells; experiment: Measurement of intracellular dNTP/ATP pools by LC-MS/MS; type: cell-based, human
Experimental: Next, we examined the RNR inhibitory effect of TAS1553 in cells by measuring dNDP pools which are direct products of RNR. However, all dNDP pools could not be detected using LC-MS/MS due to detection limit. Then we determined whether TAS1553 affected the intracellular dNTP pools as surrogate marker for RNR inhibition in cells. LC-MS/MS could not measure dGTP pool due to masking dGTP peak by ATP, as previously reported; thus, dATP, dCTP and dTTP pools were analyzed. HCC38 and MV-4-11, an acute myelogenous leukemia (AML) cell line, were exposed to TAS1553, and the peak area of each dNTP was determined using cell extracts.
(§1) Next, we evaluated both concentration-dependent and time-dependent effects of TAS1553 on the dATP pool in HCC38 and MV-4-11 cell lines using absolute quantification. After 2 h of TAS1553 exposure, there was a concentration-dependent reduction of intracellular dATP pool in both cell lines (Fig. 2c). Furthermore, the intracellular dATP pool was reduced within 30 minutes when treated with TAS1553 at 1 or 10 µmol/L in both cell lines (Fig. 2d), consistent with its inhibitory effect on the protein-protein interaction (Fig. 2a).
Cells were plated, cultured for 1 day, treated with the compound, and harvested. The collected cells were homogenized with 0.42 mol/L perchloric acid, including IS-dATP at 0.6 μmol/L and IS-ATP at 2.4 μmol/L as internal standards for dATP and ATP, respectively. At each time point, xenograft tumors were excised after single dosing of the test compound. The tissues were homogenized with 0.42 mol/L perchloric acid, including IS-dATP at 3 μmol/L as an internal standard for dATP and ATP. Subsequently, a dichloromethane solution containing 0.5 N tri-n-octylamine was added to the perchloric acid-soluble fraction obtained by centrifugation. The aqueous layer collected after vortex and centrifugation was analyzed by LC-MS/MS. LC-MS/MS analysis was performed with a prominence HPLC system connected to a LCMS-8040 tandem mass spectrometer with ESI probe (SHIMADZU CORPORATION). […]

HCC38 cells = experiment: Cell proliferation assay (CellTiter-Glo), HCC38; type: cell-based; settings: Homo sapiens, 72 h; HCC38, 3 days exposure
Experimental: as §1
(§2) Cell proliferation assay was performed as reported previously. Briefly, cells were plated and incubated for 1 day, followed by 3 days of exposure to the compound. After compound exposure, viable cells were detected by using the CellTiter-Glo luminescent cell viability assay (Promega). GI50 values were calculated using the SAS software package. The experiment was performed in triplicates.

[2] = tested on: human solid and hematological cancer cell lines; experiment: Cell proliferation assay (CellTiter-Glo), cell line panel; type: cell-based; settings: 72 h, range over solid and hematological cancer cell lines, 3 days exposure
Experimental: The growth inhibitory effect of TAS1553 was determined by calculating the GI50 value against human solid and hematological cancer cell lines.
as §2

Compound: Cc1ccc(F)c([C@@H](C)[C@H](NS(=O)(=O)c2ccc(Cl)cc2C(N)=O)c2n[nH]c(=O)o2)c1C [TAS1553, 5-chloro-2-{N-[(1S,2R)-2-(6-fluoro-2,3-dimethylphenyl)-1-(5-oxo-4,5-dihydro-1,3,4-oxadiazol-2-yl)propyl]sulfamoyl}benzamide]
- Kd (human R1): 34.9 ± 0.9 nM
- effect on intracellular dATP area ([1]; HCC38 and MV-4-11, 2 h): dramatically reduced
- effect on intracellular dCTP and dTTP areas ([1]; HCC38 and MV-4-11, 2 h): increased
- effect on intracellular ATP pool ([1]; until 2 h, 10 µmol/L): did not affect the intracellular ATP pool remarkably
- GI50 (HCC38 cells): 352 nM
- GI50 [2]: 228 to 4150 nM

Reference: PMC9184620, “TAS1553, a small molecule subunit interaction inhibitor of ribonucleotide reductase, exhibits antitumor activity by causing DNA replication stress” (Communications Biology, 2022)
